PubChem BioAssay AID1418 (Emory University Molecular Libraries Screening Center, 2008)
Activity calls are given as the source filed them. The rule behind the calls is not given here.

Each molecule was assayed against Induced myeloid leukemia cell differentiation protein Mcl-1 (Homo sapiens) (UniProt Q07820) (assay: blockers of Bid binding to Mcl-1 – biochemical, TR-FRET, dose response (AID 1418)). Details: Mcl-1/Bid peptide binding, TR-FRET (europium/Dy647), 2 hr.
Induced myeloid leukemia cell differentiation protein Mcl-1 (Homo sapiens), sequence (Q07820 whole entry, looked up): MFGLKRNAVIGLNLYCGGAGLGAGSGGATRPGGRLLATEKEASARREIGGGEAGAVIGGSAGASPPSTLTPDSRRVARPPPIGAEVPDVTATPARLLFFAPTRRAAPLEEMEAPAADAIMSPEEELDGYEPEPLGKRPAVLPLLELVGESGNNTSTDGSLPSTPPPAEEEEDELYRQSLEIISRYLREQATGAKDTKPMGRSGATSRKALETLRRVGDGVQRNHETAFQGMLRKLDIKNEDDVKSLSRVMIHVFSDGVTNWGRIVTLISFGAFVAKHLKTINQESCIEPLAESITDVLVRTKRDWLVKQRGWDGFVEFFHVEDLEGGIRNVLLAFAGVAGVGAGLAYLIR
With `CCOC(=O)c1cc2occc2n1CC(=O)NC1CCCCC1C` (stereo unspecified) the IC50 was > 54 µM (inactive).
In the case of `O=[N+]([O-])c1ccc(N/N=C/c2cn(Cc3ccc(F)cc3)c3ccccc23)nc1`, the IC50 is reported as > 54 µM (inactive).
For `CCN(CC)c1ccc(/C=N/Nc2cccc(C)c2)c(O)c1`, the IC50 was > 54 µM (inactive).
With `CN1CCN2c3ccc(N)cc3CC3(C(=O)NC(=O)NC3=O)C2C1` (stereo unspecified) the IC50 was 0.48 µM.
Work on `O=c1/c(=C\c2cc([N+](=O)[O-])cc([N+](=O)[O-])c2O)sc2nc3ccccc3n12` yielded an IC50 of 1.07 µM.
`O=C(CN1C(=O)COc2ccccc21)N(Cc1ccc2c(c1)OCO2)CC1CCCO1` (stereo unspecified) was tested, and the IC50 was > 54 µM (inactive).
In the case of `CCCCN(Cc1cc2cc(OC)ccc2[nH]c1=O)C(=O)c1ccccn1`, the IC50 is reported as > 54 µM (inactive).
`O=C1C(=Cc2ccc(Br)o2)C(=O)c2ccccc21` showed an IC50 of 3.15 µM.
With `O=C(O)CCc1nn2c3ccccc3n(CC(=O)c3ccccc3)c2nc1=O` the IC50 was > 54 µM (inactive).
`Cc1ccc([N+](=O)[O-])cc1N=Nc1c(-c2ccc([N+](=O)[O-])cc2)[nH]n(C(N)=S)c1=O` showed an IC50 of 2.22 µM.
In the case of `NC(=O)COc1c(-c2ccccc2)oc2ccccc2c1=O`, the IC50 is reported as > 54 µM (inactive).
With `COc1ccc(/C=N/NS(=O)(=O)c2ccccc2)cc1OC(=O)c1ccc(C)cc1` the IC50 was > 54 µM (inactive).
For `C=CCn1cc(C(=O)NCc2ccco2)c(=O)c2cc(S(=O)(=O)N3CCCCCC3)ccc21`, the IC50 was > 54 µM (inactive).
`O=C(Nc1ccc(CCC(=O)N2CCCC2)cc1)c1ncn[nH]1` was tested, and the IC50 was > 54 µM (inactive).
`COc1ccc(NC(=O)Cn2nnc(-c3ccccc3NC(=O)c3ccco3)n2)cc1` was tested, and the IC50 was 6.22 µM.
In the case of `Cc1ccc(C(C)C)cc1NC(=O)Nc1ccc([N+](=O)[O-])cc1`, the IC50 is reported as > 54 µM (inactive).
With `COc1ccccc1CNC(=O)CC(NS(=O)(=O)c1ccc(C)cc1)c1ccco1` (stereo unspecified) the IC50 was > 54 µM (inactive).
In the case of `COc1cccc(CN(C(=O)/C=C/c2ccc(Cl)cc2)C2CCS(=O)(=O)C2)c1` (stereo unspecified), the IC50 is reported as > 54 µM (inactive).
For `Cc1cc(C)nc(N(C#N)S(=O)(=O)c2ccccc2Cl)n1`, the IC50 was > 54 µM (inactive).
`O=C(O)c1ccc2ncsc2c1` showed an IC50 of 0.52 µM.
`CN1C(=O)CN=C(c2ccc(Cl)cc2)c2cc(Cl)ccc21` was tested, and the IC50 was > 54 µM (inactive).
With `O=c1n(S(=O)(=O)c2cccc3cccnc23)c2ccccc2n1S(=O)(=O)c1cccc2cccnc12` the IC50 was > 54 µM (inactive).
With `Cc1csc(NC(=O)C2CCN(S(=O)(=O)c3cccs3)CC2)n1` the IC50 was > 54 µM (inactive).
For `COc1ccc(N2CCN(C(=O)c3ccc4c(c3)OCO4)CC2)cc1`, the IC50 was > 54 µM (inactive).
In the case of `NS(=O)(=O)c1ccc(CCNC(=O)C(=O)c2c[nH]c3ccccc23)cc1`, the IC50 is reported as > 54 µM (inactive).
`Cn1c(=O)c2c(nc(Cc3ccc(N)cc3)n2C)n(C)c1=O` was tested, and the IC50 was > 54 µM (inactive).
`CCN1C(=O)c2cccc3c(NC(=O)C4CCCCC4)ccc1c23` was tested, and the IC50 was > 54 µM (inactive).
With `Cc1ccc(-n2c(SCC(=O)NCc3ccco3)nc3sc4c(c3c2=O)CC(C)(C)SC4)cc1` the IC50 was > 54 µM (inactive).
In the case of `O=C(Cc1c(Cl)cccc1Cl)OCC(=O)N1CCc2ccccc2C1`, the IC50 is reported as > 54 µM (inactive).
Molecule `CCCCCCCCCCCCCCCC[n+]1cccc2ccccc21` has an IC50 of 6.64 µM.
Molecule `CCOC(=O)c1c(C)oc2c1c(C(c1cccnc1)N1CCOCC1)c(O)c1ccccc12` (stereo unspecified) has an IC50 of 0.85 µM.
In the case of `COC(=O)c1cc(OC)c(OC)cc1NCC(=O)Nc1ccc(C)cc1`, the IC50 is reported as > 54 µM (inactive).
With `Cc1ccc2nc(NC(=O)c3ccc(-c4nc5ccccc5s4)s3)sc2c1` the IC50 was 1.12 µM.
`Clc1ccc(OCCCNCc2ccccc2)c(Br)c1` was tested, and the IC50 was > 54 µM (inactive).
With `COc1cccc(C(=O)Nc2ccc3nc(N4CCN(c5ncccn5)CC4)cc(C)c3c2)c1OC` the IC50 was 0.53 µM.
In the case of `CN(CC(=O)Nc1cccc(C#N)c1)Cc1ccc(Cl)cc1`, the IC50 is reported as > 54 µM (inactive).
For `O=C(O)c1ccc(NS(=O)(=O)c2cccc3nsnc23)cc1`, the IC50 was > 54 µM (inactive).
In the case of `O=C(O)CCN1C(=O)/C(=C\c2ccc(-c3nc4ccccc4s3)o2)SC1=S`, the IC50 is reported as 0.57 µM.
With `COC(=O)C1=CN(CC2CCCO2)C=C(C(=O)OC)C1c1ccsc1` (stereo unspecified) the IC50 was > 54 µM (inactive).
In the case of `COC(=O)c1ccc(Oc2coc3cc(OCc4ccc([N+](=O)[O-])cc4)ccc3c2=O)cc1`, the IC50 is reported as > 54 µM (inactive).
With `Nc1c(C(=O)NC2CC2)sc2nc3c(c(-c4ccco4)c12)CC/C3=C/c1ccco1` the IC50 was > 54 µM (inactive).
For `CCc1ccc(NC(=S)NC2CC3CCC(C2)N3Cc2ccco2)cc1` (stereo unspecified), the IC50 was > 54 µM (inactive).
`CCOC(=O)N1CCN(C(=O)CSc2ccc3nnc(CCNC(=O)c4ccc(OC)cc4)n3n2)CC1` was tested, and the IC50 was > 54 µM (inactive).
For `COc1ccc(CCNC(=O)c2ccc(CNS(=O)(=O)c3ccc(C(C)(C)C)cc3)cc2)cc1OC`, the IC50 was > 54 µM (inactive).
`CCOC(=O)C1CCCN(Cc2ccccc2OCC)C1` (stereo unspecified) was tested, and the IC50 was > 54 µM (inactive).
In the case of `CC1=C(C#N)C(=O)NC(=O)/C1=C\c1ccc(-c2cc(C)c(C)cc2[N+](=O)[O-])o1`, the IC50 is reported as 1.16 µM.
Work on `O=C(CSc1ccccn1)Nc1ccc2c(c1)C(=O)c1ccccc1C2=O` yielded an IC50 of 1.72 µM.
`Cc1ccc([N+](=O)[O-])cc1-c1ccc(/C=C(\C#N)c2[nH]nc(N)c2C#N)o1` showed an IC50 of 3.74 µM.
In the case of `O=C(COC(=O)CC(NC(=O)c1ccccc1Cl)c1ccccc1)Nc1cccc(F)c1` (stereo unspecified), the IC50 is reported as > 54 µM (inactive).
For `CC1CCC(C(C)C)C(OC(=O)C[n+]2cc(-c3ccc(Cl)cc3)n3c2CCC3)C1` (stereo unspecified), the IC50 was > 54 µM (inactive).
`COc1ccc(NS(=O)(=O)c2cccc(NC(=O)CCC(=O)c3ccc(Cl)cc3)c2)cc1` was tested, and the IC50 was > 54 µM (inactive).
In the case of `CCS(=O)(=O)N1CCN(C(C)CCc2ccccc2)CC1` (stereo unspecified), the IC50 is reported as > 54 µM (inactive).
In the case of `CC(/C=C1\SC(=S)N(NS(=O)(=O)c2ccc(C)cc2)C1=O)=C\c1ccccc1`, the IC50 is reported as 25 µM.
For `O=C(O)c1[nH]c2ccccc2c1C=NCc1ccccc1Cl`, the IC50 was > 54 µM (inactive).
`CCOC(=O)c1c(/N=C/C2C(=O)NC(=S)NC2=O)sc(C)c1C` showed an IC50 of 2.08 µM.
For `CN1CCN(C(=S)c2cn(Cc3ccccc3F)c3ccccc23)CC1`, the IC50 was > 54 µM (inactive).
For `Cc1ccc2nc(SC(C)C(=O)NC3CCCc4ccccc43)[nH]c2c1` (stereo unspecified), the IC50 was > 54 µM (inactive).
For `O=c1c(C(c2ccccc2)c2c(O)sc3ccccc3c2=O)c(O)sc2ccccc12`, the IC50 was 10.6 µM.
For `CCOC(=O)Nc1ccc2c(c1)N(C(=O)OCCN(C)C)c1ccccc1CC2`, the IC50 was > 54 µM (inactive).
For `C[N+](C)(C)c1ccc(/C=N/Nc2nc(Cl)c(C#N)c(Cl)c2Cl)cc1`, the IC50 was > 54 µM (inactive).
In the case of `Oc1c(Cl)cc(Cl)c(Cl)c1Cc1c(O)c(Cl)cc(Cl)c1Cl`, the IC50 is reported as 0.86 µM.
`Cc1ccc(Cn2nc(C)c(NC(=O)CSc3nc4c(c(C(F)(F)F)n3)CCc3ccccc3-4)c2C)cc1` was tested, and the IC50 was 1.91 µM.
In the case of `COc1ccc(-n2cc(-c3ccc(OC(F)F)cc3)[n+]3c2CCCCC3)cc1`, the IC50 is reported as > 54 µM (inactive).
With `O=C(COc1ccc(/C=N/NC(=O)c2cc3ccccc3o2)cc1Br)Nc1ccccc1` the IC50 was 0.61 µM.
In the case of `CCO[C@@H]1OC(C(=O)N2CCN(Cc3ccccc3)CC2)=C[C@H](C2CC2)[C@H]1CCCO`, the IC50 is reported as > 54 µM (inactive).
With `Cc1nc(SCC(=O)Nc2cc(Cl)ccc2[N+](=O)[O-])nc(C)c1C` the IC50 was > 54 µM (inactive).
With `Cn1c2c(c(=O)n(C)c1=O)C1c3cc(Cl)ccc3OCC1CO2` (stereo unspecified) the IC50 was > 54 µM (inactive).
`O=C(Cn1c2ccccc2c(=O)c2ccccc21)N/N=C/c1cc([N+](=O)[O-])ccc1N1CCCCC1` was tested, and the IC50 was 0.65 µM.
For `COc1ccc2[nH]c3c(=O)n(Cc4ccco4)cnc3c2c1`, the IC50 was > 54 µM (inactive).
With `O=C(O)c1ccc(CS(=O)(=O)Cc2ccccc2F)o1` the IC50 was > 54 µM (inactive).
`Cc1ccc2cc(/C=N/NC(=O)CN3CCOCC3)c(Cl)nc2c1` was tested, and the IC50 was > 54 µM (inactive).
